Measured values taken from patent US10357493B2, “Metalloenzyme inhibitor compounds” (Selenity Therapeutics (Bermuda), Ltd., priority 2017, dated 2019).

Legend:
[1] = molecular target: HDAC1 (Homo sapiens (Human), UniProt Q13547); test: HDAC1 enzymatic assay; format: biochemical; conditions: read-out: Human HDAC1 IC50
Procedure: (§1) All enzymatic reactions were conducted in duplicate at room temperature for 17 hours in a 50 μl mixture containing HDAC assay buffer (50 mM Tris-HCl, pH 7.4, 137 mM NaCl, 2.7 mM KCl, 0.05% Tween 20, 5 μg BSA), an HDAC substrate, an HDAC enzyme, and a test compound. Compound dilution was prepared ten-fold higher than the final concentration of the compounds with 10% DMSO in HDAC assay buffer and 5 μl of the dilution was added to a 50 μl reaction so that the final concentration of DMSO is 1% in all of reactions. After enzymatic reactions, 50 μl of HDAC Developer was added to each well and the plate was incubated at room temperature for an additional 20 minutes. Fluorescence intensity was measured at an excitation of 360 nm and an emission of 460 nm using a Tecan Infinite M1000 or Biotek Synergy microplate reader.
(§2) The fluorescent intensity data were analyzed using the computer software, Graphpad Prism. In the absence of the compound, the fluorescent intensity (Ft) in each data set was defined as 100% activity. In the absence of HDAC, the fluorescent intensity (Fb) in each data set was defined as 0% activity. The percent activity in the presence of each compound was calculated according to the following equation: % activity=(F−Fb)/(Ft−Fb), where F=the fluorescent intensity in the presence of the compound.
(§3) The values of % activity versus a series of compound concentrations were then plotted using non-linear regression analysis of Sigmoidal dose-response curve generated with the equation Y=B+(T−B)/1+10((Log EC50−X)×Hill Slope), where Y=percent activity, B=minimum percent activity, T=maximum percent activity, X=logarithm of compound and Hill Slope=slope factor or Hill coefficient. The IC50 value was determined by the concentration causing a half-maximal percent activity.
(§4) HDAC1 enzymatic assays contained 0.5 ng HDAC1 and 10 uM of HDAC substrate. HDAC2 enzymatic assays contained 0.5 ng HDAC2 and 10 uM of HDAC substrate. HDAC3 enzymatic assays contained 0.4 ng HDAC3/NCOR2 and 10 uM of HDAC substrate. HDAC4 enzymatic assays contained 0.02 ng HDAC4 and 2 uM of HDAC substrate. HDAC5 enzymatic assays contained 0.5 ng HDAC5 and 2 uM of HDAC substrate. HDAC6 enzymatic assays contained 2 ng HDAC6 and 10 uM of HDAC substrate. HDAC7 enzymatic assays contained 0.05 ng HDAC7 and 2 uM of HDAC substrate. HDAC8 enzymatic assays contained 5 ng HDAC8 and 2 uM of HDAC substrate. HDAC9 enzymatic assays contained 1 ng HDAC9 and 2 uM of HDAC substrate. HDAC10 enzymatic assays contained 75 ng HDAC10 and 10 uM of HDAC substrate. HDAC11 enzymatic assays contained 5 ng HDAC11 and 2 uM of HDAC substrate.

[2] = molecular target: HDAC6 (Homo sapiens (Human), UniProt Q9UBN7); test: HDAC6 enzymatic assay; format: biochemical; conditions: read-out: Human HDAC6 IC50
HDAC6, sequence (Q9UBN7 whole entry): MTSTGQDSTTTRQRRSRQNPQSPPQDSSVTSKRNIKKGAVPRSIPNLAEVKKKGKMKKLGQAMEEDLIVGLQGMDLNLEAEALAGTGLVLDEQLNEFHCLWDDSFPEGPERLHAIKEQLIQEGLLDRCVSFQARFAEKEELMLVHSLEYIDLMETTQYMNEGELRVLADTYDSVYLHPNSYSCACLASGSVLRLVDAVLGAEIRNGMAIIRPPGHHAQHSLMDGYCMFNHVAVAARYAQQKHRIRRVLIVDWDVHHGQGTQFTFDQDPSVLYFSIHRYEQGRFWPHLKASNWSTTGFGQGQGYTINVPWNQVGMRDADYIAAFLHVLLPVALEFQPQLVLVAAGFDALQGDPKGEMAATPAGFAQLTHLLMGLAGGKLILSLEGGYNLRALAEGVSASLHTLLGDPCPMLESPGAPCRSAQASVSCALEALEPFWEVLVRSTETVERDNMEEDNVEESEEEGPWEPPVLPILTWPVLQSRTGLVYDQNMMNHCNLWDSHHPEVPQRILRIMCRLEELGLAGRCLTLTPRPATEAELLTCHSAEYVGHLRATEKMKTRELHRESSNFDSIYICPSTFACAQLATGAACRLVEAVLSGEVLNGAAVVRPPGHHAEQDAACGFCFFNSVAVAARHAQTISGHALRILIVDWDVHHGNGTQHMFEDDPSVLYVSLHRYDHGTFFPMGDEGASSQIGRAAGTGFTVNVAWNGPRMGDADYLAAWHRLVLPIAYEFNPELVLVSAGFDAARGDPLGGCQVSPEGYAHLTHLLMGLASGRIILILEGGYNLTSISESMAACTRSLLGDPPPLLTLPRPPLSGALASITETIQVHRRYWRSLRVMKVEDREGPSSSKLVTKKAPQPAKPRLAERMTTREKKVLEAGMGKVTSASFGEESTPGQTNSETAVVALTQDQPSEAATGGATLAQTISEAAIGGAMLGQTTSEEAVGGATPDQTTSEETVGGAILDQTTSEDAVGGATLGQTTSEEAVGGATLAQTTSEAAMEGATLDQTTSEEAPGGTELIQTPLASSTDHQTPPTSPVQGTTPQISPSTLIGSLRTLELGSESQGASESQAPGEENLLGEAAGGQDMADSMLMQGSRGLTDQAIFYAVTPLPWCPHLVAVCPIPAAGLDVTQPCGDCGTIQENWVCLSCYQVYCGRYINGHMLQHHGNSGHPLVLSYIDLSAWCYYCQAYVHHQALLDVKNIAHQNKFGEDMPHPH
Procedure: as §1, §2, §3, §4

HDAC1, sequence (Q13547 whole entry): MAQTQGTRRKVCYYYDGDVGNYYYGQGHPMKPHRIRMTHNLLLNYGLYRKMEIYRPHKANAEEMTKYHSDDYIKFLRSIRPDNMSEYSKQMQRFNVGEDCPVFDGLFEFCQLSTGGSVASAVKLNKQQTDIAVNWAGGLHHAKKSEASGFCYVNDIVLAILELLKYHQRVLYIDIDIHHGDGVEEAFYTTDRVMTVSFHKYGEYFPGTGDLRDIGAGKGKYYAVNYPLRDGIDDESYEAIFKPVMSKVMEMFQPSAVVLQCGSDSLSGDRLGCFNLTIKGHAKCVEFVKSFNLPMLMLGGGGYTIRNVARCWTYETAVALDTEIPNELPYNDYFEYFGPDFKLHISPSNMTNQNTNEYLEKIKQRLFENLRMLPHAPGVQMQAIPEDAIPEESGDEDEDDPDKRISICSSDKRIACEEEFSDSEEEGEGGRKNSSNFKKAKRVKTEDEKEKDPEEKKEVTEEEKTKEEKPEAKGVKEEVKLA

SMILES	IC50 [1] [nM]	IC50 [2] [nM]
O=C(C1CC1)N(CC(Nc1ncc(-c2nnc(C(F)F)o2)cn1)c1ccc(F)cc1)CC(F)(F)F (single isomer, unassigned) [170(+), N-(2-((5-(5-(difluoromethyl)-1,3,4-oxadiazol-2-yl)pyrimidin-2-yl)amino)-2-(4-fluorophenyl)ethyl)-N-(2,2,2-trifluoroethyl)cyclopropanecarboxamide]	> 30000	160
Fc1ccc(C(Cn2cnc(C(F)(F)F)c2)Nc2ncc(-c3nnc(C(F)F)o3)cn2)cc1 (single isomer, unassigned) [175(+), 5-(5-(difluoromethyl)-1,3,4-oxadiazol-2-yl)-N-(1-(4-fluorophenyl)-2-(4-(trifluoromethyl)-1H-imidazol-1-yl)ethyl)pyrimidin-2-amine]	> 30000	160
Fc1ccc(C(COCC(F)(F)F)Nc2ncc(-c3nnc(C(F)F)o3)cn2)c(F)c1 (single isomer, unassigned) [163(−), 5-(5-(difluoromethyl)-1,3,4-oxadiazol-2-yl)-N-(1-(2,4-difluorophenyl)-2-(2,2,2-trifluoroethoxy)ethyl)pyrimidin-2-amine]	> 30000	410
FC(F)c1nnc(-c2cnc(NC3(c4cccc(OCC(F)(F)F)c4Cl)CC3)nc2)o1 [Example 87, N-(1-(2-chloro-3-(2,2,2-trifluoroethoxy)phenyl)cyclopropyl)-5-(5-(difluoromethyl)-1,3,4-oxadiazol-2-yl)pyrimidin-2-amine]	> 30000	120
O=S1(=O)CCCN1CC(Nc1ncc(-c2nnc(C(F)F)o2)cn1)c1ccc(F)cc1 (single isomer, unassigned; (+)) [120(+), (+)-2-(2-((5-(5-(difluoromethyl)-1,3,4-oxadiazol-2-yl)pyrimidin-2-yl)amino)-2-(4-fluorophenyl)ethyl)isothiazolidine 1,1-dioxide]	> 30000	37
CCS(=O)(=O)NCC(Nc1ncc(-c2nnc(C(F)F)o2)cn1)c1ccc(OC(F)(F)F)cc1 (stereo not drawn) [155(+), N-(2-((5-(5-(difluoromethyl)-1,3,4-oxadiazol-2-yl)pyrimidin-2-yl)amino)-2-(4-(trifluoromethoxy)phenyl)ethyl)ethanesulfonamide]	> 30000	50
Fc1ccc(-c2ccc(C3(Nc4ncc(-c5nnc(C(F)F)o5)cn4)CC3)cc2)cc1 [Example 16, 5-(5-(difluoromethyl)-1,3,4-oxadiazol-2-yl)-N-(1-(4′-fluoro-[1,1′-biphenyl]-4-yl)cyclopropyl) pyrimidin-2-amine]	> 30000	95
Fc1ccc(C(COC2CC2)Nc2ncc(-c3nnc(C(F)F)o3)cn2)c(F)c1 (single isomer, unassigned) [Example 134A, N-(2-cyclopropoxy-1-(2,4-difluorophenyl)ethyl)-5-(5-(difluoromethyl)-1,3,4-oxadiazol-2-yl)pyrimidin-2-amine]	> 30000	220
Fc1ccc(C(CC(F)(F)F)Nc2ncc(-c3nnc(C(F)F)o3)cn2)c(F)c1 (single isomer, unassigned) [101(−)]	> 30000	710
CS(=O)(=O)Nc1cccc(CC(Nc2ncc(-c3nnc(C(F)F)o3)cn2)c2ccc(F)cc2)c1 (stereo not drawn) [Example 132, N-(3-(2-((5-(5-(difluoromethyl)-1,3,4-oxadiazol-2-yl)pyrimidin-2-yl)amino)-2-(4-fluorophenyl)ethyl)phenyl)methanesulfonamide]	> 30000	83
COc1ccc(C2(Nc3ncc(-c4nnc(C(F)(F)F)o4)cn3)CC2)cc1 [Example 42, N-(1-(4-methoxyphenyl)cyclopropyl)-5-(5-(trifluoromethyl)-1,3,4-oxadiazol-2-yl)pyrimidin-2-amine]	> 30000	250
CC(C)(Nc1ncc(-c2nnc(C(F)F)o2)cn1)c1c(F)cccc1F [Example 98, 5-(5-(difluoromethyl)-1,3,4-oxadiazol-2-yl)-N-(2-(2,6-difluorophenyl)propan-2-yl)pyrimidin-2-amine]	> 30000	16
Fc1ccc(C(COCC(F)(F)F)Nc2ncc(-c3nnc(C(F)F)o3)cn2)cc1 (single isomer, unassigned) [162(−), 5-(5-(difluoromethyl)-1,3,4-oxadiazol-2-yl)-N-(1-(4-fluorophenyl)-2-(2,2,2-trifluoroethoxy)ethyl)pyrimidin-2-amine]	> 30000	300

The next lines start with the values.

IC50 [1] [nM]	IC50 [2] [nM]	SMILES
> 30000	30	Fc1ccc(C(CC(F)(F)F)Nc2ncc(-c3nnc(C(F)F)o3)cn2)cc1 (single isomer, unassigned; (+)) [13(+), (+)-5-(5-(difluoromethyl)-1,3,4-oxadiazol-2-yl)-N-(3,3,3-trifluoro-1-(4-fluorophenyl)propyl)pyrimidin-2-amine]
> 30000	30	FC(F)c1nnc(-c2cnc(NC3(c4ccc(Cl)cc4)CC3)nc2)o1 [Example 50, N-(1-(4-chlorophenyl)cyclopropyl)-5-(5-(difluoromethyl)-1,3,4-oxadiazol-2-yl)pyrimidin-2-amine]
> 30000	28	FC(F)Oc1cccc(C2(Nc3ncc(-c4nnc(C(F)F)o4)cn3)CC2)c1Cl [Example 86, N-(1-(2-chloro-3-(difluoromethoxy)phenyl)cyclopropyl)-5-(5-(difluoromethyl)-1,3,4-oxadiazol-2-yl)pyrimidin-2-amine]
> 30000	260	CS(=O)(=O)N(CC(Nc1ncc(-c2nnc(C(F)F)o2)cn1)c1ccc(OC(F)(F)F)cc1)CC(F)(F)F (stereo not drawn) [154(+), N-(2-((5-(5-(difluoromethyl)-1,3,4-oxadiazol-2-yl)pyrimidin-2-yl)amino)-2-(4-(trifluoromethoxy)phenyl)ethyl)-N-(2,2,2-trifluoroethyl)methanesulfonamide]
> 30000	210	FC(F)(F)c1nnc(-c2cnc(NC3(c4ccccc4)CC3)nc2)o1 [Example 1, N-(1-phenylcyclopropyl)-5-(5-(trifluoromethyl)-1,3,4-oxadiazol-2-yl) pyrimidin-2-amine]
> 30000	110	CS(=O)(=O)N(CC(Nc1ncc(-c2nnc(C(F)F)o2)cn1)c1ccc(Cl)cc1)CC(F)(F)F (single isomer, unassigned) [174(−), N-(2-(4-chlorophenyl)-2-((5-(5-(difluoromethyl)-1,3,4-oxadiazol-2-yl)pyrimidin-2-yl)amino)ethyl)-N-(2,2,2-trifluoroethyl)methanesulfonamide]
> 30000	33	CC(Nc1ncc(-c2nnc(C(F)F)o2)cn1)c1ccc(F)cc1 (stereo not drawn) [Example 20, 5-(5-(difluoromethyl)-1,3,4-oxadiazol-2-yl)-N-(1-(4-fluorophenyl)ethyl)pyrimidin-2-amine]
> 30000	76	O=C1CCCN1CC(Nc1ncc(-c2nnc(C(F)F)o2)cn1)c1ccc(F)cc1 (single isomer, unassigned) [177(−), 1-(2-((5-(5-(difluoromethyl)-1,3,4-oxadiazol-2-yl)pyrimidin-2-yl)amino)-2-(4-fluorophenyl)ethyl)pyrrolidin-2-one]
> 30000	210	FC(F)c1nnc(-c2cnc(NC3(c4cc(C(F)(F)F)ccc4Cl)CC3)nc2)o1 [Example 81, N-(1-(2-chloro-5-(trifluoromethyl)phenyl)cyclopropyl)-5-(5-(difluoromethyl)-1,3,4-oxadiazol-2-yl)pyrimidin-2-amine]
> 30000	77	CN(CC(Nc1ncc(-c2nnc(C(F)F)o2)cn1)c1ccc(F)cc1)C(=O)C1CC1 (single isomer, unassigned) [169(+), N-(2-((5-(5-(difluoromethyl)-1,3,4-oxadiazol-2-yl)pyrimidin-2-yl)amino)-2-(4-fluorophenyl)ethyl)-N-methylcyclopropanecarboxamide]
> 30000	110	Fc1ccc(C(COCC(F)(F)F)Nc2ncc(-c3nnc(C(F)F)o3)cn2)c(F)c1 (single isomer, unassigned) [163(+), 5-(5-(difluoromethyl)-1,3,4-oxadiazol-2-yl)-N-(1-(2,4-difluorophenyl)-2-(2,2,2-trifluoroethoxy)ethyl)pyrimidin-2-amine]
